Experiments:
NCI-H1395 cells [1] = assay: Anti-tumor test (2) on mice bearing NCI-H1395 tumors; assay type: in vivo, BALB/c nude mice; conditions: final measuring day
Protocol: (§1) A427 cells and NCI-H1395 cells which are LKB1 mutation-positive non-small cell lung cancer cell lines, and HARA cells and NCI-H1993 cells which are LKB1 wild-type non-small cell lung cancer cell lines, suspended in a mixed solution of PBS and Matrigel (registered trademark) in 1:1, were injected and implanted, 3×10^6 cells each (for A427 cells, 5×10^6), to 4- to 5-week-old male BALB/c nude mice (Charles River Laboratories Japan, Inc.) under the skin on the back. Dividing into groups was performed when the tumor volume reached 100 to 300 mm^3, and administering of the test compounds was started. The test was performed on each of the 5 mice in the solvent group and the compound administered group. By oral administration, 6% cyclodextrin aqueous solution for the solvent group, and 6% cyclodextrin aqueous solution in which the test compound was mixed by the dosage shown in Table 4 for the compound administered group were administered. The administration was performed once a day for 14 days (HARA), 21 days (A427, NCI-H1993), or 35 days (NCI-H1395), and the body weight and the tumor diameter were measured twice a week. For calculation of the tumor volume, the formula below was used.
(§2) [Tumor volume (mm^3)]−[major axis of tumor (mm)]×[minor axis of tumor (mm)]^2×0.5
(§3) The inhibition rate of tumor growth and the rate of tumor regression were calculated from the average value of the tumor volume according to the formula below.
(§4) Inhibition rate of tumor growth (%)=(1−average of tumor volume growth in each group/average of tumor volume growth in control group)×100
(§5) Rate of tumor regression (%)=(1−average tumor volume in each group on measuring day/average tumor volume in each group when dividing groups)×100

HARA cells [2] = assay: Anti-tumor test (2) on mice bearing HARA tumors; assay type: in vivo, BALB/c nude mice; conditions: Test Example 4, HARA, final measuring day
Protocol: as §1, §2, §3, §4, §5

NCI-H1993 cells [3] = assay: Anti-tumor test (2) on mice bearing NCI-H1993 tumors; assay type: in vivo, BALB/c nude mice; conditions: final measuring day
Protocol: as §1, §2, §3, §4, §5

AMPK = assay: Evaluation on effect of activating AMPK (phosphorylation of ACC Ser79, Cell ELISA in MDA-MB-453 cells); assay type: cell-based; conditions: Homo sapiens, 2 hours, concentration as freebase
Protocol: 36 μl each of MDA-MB-453 cells was seeded in Leibovitz's L-15 medium including 10% fetal bovine serum (Life Technologies Corporation) in a 384 well plate so that the cells became 15,000 cells per well, and the cells were cultured overnight at 37° C. in the absence of CO2. […] After that, the cells were cultured at 37° C. for 2 hours in the absence of CO2. 20 μl of a 40% glyoxal solution (Nacalai Tesque, INC.) was added to each well, and then the cells were left to stand at room temperature for 30 minutes to be fixed. Thereafter, the supernatant was removed by centrifuging the plate (at 800 rpm for 8 seconds by using the Ecospin of C.A.N. Hereinafter the centrifugation was performed under the same conditions unless otherwise specified), and 20 μl of 0.1% Triton X-100-containing Phosphate-Buffered Saline (PBS) was added to each well, and then left to stand at room temperature for 10 minutes. The 0.1% Triton X-100-containing PBS was removed by centrifugation, and 20 μl of a blocking solution (Odyssey Blocking Buffer manufactured by LI-COR Biosciences, Inc.) was added to each well, and then left to stand at room temperature for 1 hour. […] On the following day, the reaction solution was removed by centrifuging the plate, and 25 μl of 0.05% Tween-20-containing Tris-Buffered Saline (TBS) (manufactured by Thermo Scientific; used in 1× by diluting 20×TBS Tween-20 with ion-exchange water) was added to each well, and then each well was washed by centrifugal removal. The washing was performed for a total of 3 times. […] The reaction solution was removed by centrifuging the plate, and then each well was washed for 3 times with 0.05% Tween-20-containing TBS in the same manner as after the primary antibody reaction. After the washing solution was removed, the plate was air-dried at room temperature for 3 hours or longer and signals were measured by Aerius (manufactured by LI-COR Biosciences, Inc.).

A427 cells [4] = assay: Anti-tumor test (2) on mice bearing A427 tumors; assay type: in vivo, BALB/c nude mice; conditions: final measuring day
Protocol: as §1, §2, §3, §4, §5

A427 cells [5] = assay: Anti-tumor test (1) on mice bearing A427 tumors; assay type: in vivo, BALB/c nude mice; conditions: Test Example 3, A427 (LKB1 mutation-positive), 8 mg/kg oral once a day for 21 days, final measuring day
Protocol: (§6) A427 cells and NCI-H1395 cells which are LKB1 mutation-positive non-small cell lung cancer cell lines, and HARA cells and NCI-H1993 cells which are LKB1 wild-type non-small cell lung cancer cell lines, suspended in a mixed solution of PBS and Matrigel (registered trademark) in 1:1, were injected and implanted, 3×10^6 cells each, to 4- to 5-week-old male BALB/c nude mice (Charles River Laboratories Japan, Inc.) under the skin on the back. After that, administering of the test compounds was started after confirming that the average tumor volume exceeded 100 mm^3. The test was performed on each of the 4 to 5 mice in a solvent group and a compound administered group. By oral administration, 6% cyclodextrin aqueous solution for the solvent group, and 6% cyclodextrin aqueous solution in which the test compound was mixed by 8 mg/kg for the compound administered group were administered. The administration was performed once a day for 14 days (NCI-H1993, HARA), 21 days (A427), or 35 days (NCI-H1395), and the body weight and the tumor diameter were measured twice a week. For calculation of the tumor volume, the formula below was used.
(§7) [Tumor volume (mm^3)]=[major axis of tumor (mm)]×[minor axis of tumor (mm)]^2×0.5
(§8) The inhibition rate of tumor growth and the rate of tumor regression were calculated from the average value of the tumor volume according to the formula below. […]

HARA cells [6] = assay: Anti-tumor test (1) on mice bearing HARA tumors; assay type: in vivo, BALB/c nude mice; conditions: Test Example 3, HARA (LKB1 wild-type), 8 mg/kg oral once a day for 14 days, final measuring day
Protocol: as §6, §7, §8

NCI-H1993 cells [7] = assay: Anti-tumor test (1) on mice bearing NCI-H1993 tumors; assay type: in vivo, BALB/c nude mice; conditions: Test Example 3, NCI-H1993 (LKB1 wild-type), 8 mg/kg oral once a day for 14 days, final measuring day
Protocol: as §6, §7, §8

NCI-H1395 cells [8] = assay: Anti-tumor test (1) on mice bearing NCI-H1395 tumors; assay type: in vivo, BALB/c nude mice; conditions: Test Example 3, NCI-H1395 (LKB1 mutation-positive), 8 mg/kg oral once a day for 35 days, final measuring day
Protocol: as §6, §7, §8

[9] = Test Example 4, NCI-H1395, 1 mg/kg oral once a day for 35 days
[10] = 1 mg/kg oral once a day for 14 days
[11] = Test Example 4, NCI-H1993, 1 mg/kg oral once a day for 21 days
[12] = Test Example 4, A427, 1 mg/kg oral once a day for 21 days
[13] = Test Example 4, NCI-H1395, 8 mg/kg oral once a day for 35 days
[14] = 8 mg/kg oral once a day for 14 days
[15] = Test Example 4, NCI-H1993, 8 mg/kg oral once a day for 21 days
[16] = Test Example 4, A427, 8 mg/kg oral once a day for 21 days

Row | SMILES | Inhibition rate NCI-H1395 (NCI-H1395 cells [1]; [9]) [%] | Inhibition rate HARA (HARA cells [2]; [10]) [%] | Inhibition rate NCI-H1993 (NCI-H1993 cells [3]; [11]) [%] | EC50 (AMPK) [nM] | Inhibition rate A427 (A427 cells [4]; [12]) [% inhibition] | Inhibition rate NCI-H1395 (NCI-H1395 cells [1]; [13]) [%] | Inhibition rate HARA (HARA cells [2]; [14]) [%] | Inhibition rate NCI-H1993 (NCI-H1993 cells [3]; [15]) [%] | Inhibition rate A427 (A427 cells [4]; [16]) [% inhibition] | Regression rate A427 (A427 cells [4]; [12]) [% regression] | Rate of tumor regression (A427 cells [5]) [% regression] | Inhibition rate of tumor growth (HARA cells [6]) [% inhibition] | Inhibition rate of tumor growth (NCI-H1993 cells [7]) [% inhibition] | Rate of tumor regression (NCI-H1395 cells [8]) [% regression]
1 | COc1cnc(CN2CCC(c3ccc4c(c3)cc(C(=O)N3CCN(Cc5ccc(C#N)cc5)CC3)n4C)CC2)cn1 [Compound D1, 4-({4-[(5-{1-[(5-methoxypyrazin-2-yl)methyl]piperidin-4-yl}-1-methyl-1H-indol-2-yl)carbonyl]piperazin-1-yl}methyl)benzonitrile] | 70 | 31 | 42 | 3.3 | 96 |  |  |  |  |  |  |  |  | 
2 | COc1cnc(CN2CCC(c3ccc4[nH]c(C(=O)N5CCN(Cc6ccc(C(F)(F)F)cc6)CC5)nc4c3)CC2)cn1 [Compound B1, (5-{1-[(5-methoxypyrazin-2-yl)methyl]piperidin-4-yl}-1H-benzimidazol-2-yl) {4-[4-(trifluoromethyl)benzyl]piperazin-1-yl}methanone] |  |  |  | 8.3 |  | 74 | 14 | 62 | 99 |  |  |  |  | 
3 | CCOc1cnc(CN2CCC(c3ccc4cc(C(=O)N5CCN(Cc6ccc(C#N)cc6)CC5)n(C)c4c3)CC2)cn1 [Compound C1, 4-({4-[(6-{1-[(5-ethoxypyrazin-2-yl)methyl]piperidin-4-yl}-1-methyl-1H-indol-2-yl)carbonyl]piperazin-1-yl}methyl)benzonitrile] | 75 | 29 | 50 | 1.8 |  |  |  |  |  | 69 |  |  |  | 
4 | COc1ccc(CN2CCC(c3ccc4[nH]c(C(=O)N5CCN(Cc6ccc(C(F)(F)F)cc6)CC5)nc4c3)CC2)cn1 [Compound A1, (5-{1-[(6-methoxypyridin-3-yl)methyl]piperidin-4-yl}-1H-benzimidazol-2-yl){4-[4-(trifluoromethyl)benzyl]piperazin-1-yl}methanone] |  |  |  |  |  | 61 | 1.2 | 47 | 84 |  | 41 | 32 | 62 | 16

— US20170360779A1, “PHARMACEUTICAL COMPOSITION COMPRISING BICYCLIC NITROGEN-CONTAINING AROMATIC HETEROCYCLIC AMIDE COMPOUND AS ACTIVE INGREDIENT” (Astellas Pharma Inc., priority 2014, published 2017)
